{App} = adenylated (5'-5' adenylyl pyrophosphate) terminus
Assays:
Assay type in all cases: biochemical
[1] = tested on: 10DM24-C44T mutant deoxyribozyme; test: Ligation of NTP substrate with 10DM24 variant in which the terminal P4 nucleotide is changed C→T, cofactor RΔ; details: for krel = kobs,NTP*/kobs,NTP: relative to ATP
Experimental: (§1) General Description of Kinetic Assays. All kinetic assays with the 10DM24 deoxyribozyme and its variants were performed according to established methods (Flynn-Charlebois, et al. (2003) supra; Wang and Silverman (2003) supra). The 5′-^32P-labeled RNA substrate (L for “left-hand substrate”) that provides the branch-site adenosine was the limiting reagent relative to 10DM24 (E) and the truncated cofactor RNA (RΔ; R originally derived from “right-hand substrate”). The ratio L:E:RΔ was 1:10:30, with 0.25 μM 10DM24. The cofactor RΔ was 5′-phosphorylated unless otherwise stated. The RNA substrate L, deoxyribozyme 10DM24 and cofactor RΔ were annealed in 5 mM HEPES, pH 7.5, 15 mM NaCl, 0.1 mM EDTA by heating at 95° C. for 3 minutes and cooling on ice for 5 minutes. The ligation reactions were performed with the appropriate concentration of NTP substrate (0.05-50 mM) at a final buffer concentration of 100 mM CHES, pH 9.0, 150 mM NaCl, 2 mM KCl, and 40-400 mM MgCl2 at 37° C. for up to 5 hours. The combination of 1 mM NTP and 40 mM MgCl2 was defined as “standard incubation conditions”; 10 mM NTP and 150 mM MgCl2 was defined as “enhanced incubation conditions”. At appropriate timepoints, aliquots were removed from the sample, quenched into stop solution (80% formamide, 1× TB [89 mM each Tris and boric acid, pH 8.3], and 50 mM EDTA containing 0.025% bromophenol blue and xylene cyanol) and stored at −20° C. prior to analysis. Samples were separated by 20% denaturing PAGE at 30 W for 115 minutes and imaged with a PHOSPHORIMAGER. The resulting data were fit to the equation yield=Y·(1−e^−kt), where k=kobs and Y=final yield.
Focus was then placed on the purine NTPs (GTP, ATP) and their derivatives. When 1 mM ATP was provided as a small molecule substrate in place of GTP using the original 10DM24 sequence and RΔ, no reaction was observed (<1% in 5 hours). […] Furthermore, the kobs increased sixteen-fold to 0.013 min^−1 under enhanced conditions with 10 mM ATP (82% yield in 3 hours).

10DM24 deoxyribozyme [2] = test: Ligation with full-length R oligonucleotide as substrate, varied 5′-terminal nucleotide; details: for kobs: full-length R substrate, deoxyribozyme nucleotide changed to maintain Watson-Crick complementarity
Experimental: as §1
The generality of the ligation reaction using other NTP substrates in place of GTP was also determined. The analogous reaction with the full-length R oligonucleotide as substrate proceeded well when a 5′-terminal G was present (kobs 0.51 min^−1 for 5′-AppG), with only three-fold reduced rate with 5′-AppA (kobs 0.18 min^−1). The RNA substrate with 5′-AppC reacted 20-fold more slowly than 5′-AppG, but still gave high yield (kobs 0.024 min^−1; 89% in 3 hours), whereas the yield with 5′-AppU was very poor (kobs 0.002 min^−1; 9% in 3 hours). It is noted that in all cases, the corresponding deoxyribozyme nucleotide was changed to maintain Watson-Crick complementarity.

10DM24 deoxyribozyme [3] = test: 10DM24-catalyzed ligation of small-molecule NTP substrate to branch-site adenosine of RNA substrate L with cofactor RΔ; details: for kobs,enh/kobs,std: GTP series; for krel = kobs,NTP*/kobs,NTP: relative to GTP
Experimental: as §1
Use of Free NTPs as Substrates. It was determined whether 10DM24 could catalyze ligation with free GTP as a substrate (see FIG. 1B), thereby transferring guanosine 5′-monophosphate (GMP) to the branch-site adenosine 2′-hydroxyl group. When RΔ, an oligoribonucleotide cofactor that corresponds to all of the remaining nucleotides of R, was added to 10DM24 along with GTP, ligation was efficient (FIG. 8; 94% yield in 5 hours and kobs 0.034 min^−1 under the standard incubation conditions of 1 mM GTP and 40 mM MgCl2 at pH 9.0, 37° C.). The RNA product with the single added guanosine at the branch-site adenosine was PAGE-purified and the identity confirmed by partial alkaline hydrolysis (50 mM NaHCO3 at 95° C. for 5 minutes) and MALDI mass spectrometry (m/z calcd. 5433, found 5437±5).

10DM24 deoxyribozyme [4] = test: Ligation of GTP or pppGpG in presence of shorter cofactor RΔΔ; details: RΔΔ cofactor, 20 mM NTP and 150 mM MgCl2, pH 9.0, 37° C.
Experimental: It was subsequently shown that a binding site for an NTP cofactor can be located adjacent to the substrate binding site. This was achieved by removing an additional nucleotide from the RΔ cofactor, forming the shorter RΔΔ cofactor which required two added nucleotides to reconstitute the complete P4 region (FIG. 10). The 10DM24-catalyzed ligation reaction of GTP in the presence of the two-nucleotide short cofactor RΔΔ was performed with the 5′-^32P-labeled RNA substrate (L) that provides the branch-site adenosine as the limiting reagent. For kinetic assays, the ratio of L:E:RΔΔ was 1:10:30 with 0.25 μM deoxyribozyme (E). For isolation of the reaction products, the ratio L:E:RΔΔ was 1:2:3 with 1.5 μM deoxyribozyme. The reaction was performed under the enhanced incubation conditions with 20 mM GTP and 150 mM MgCl2 in 100 mM CHES, pH 9.0, 150 mM NaCl, and 2 mM KCl at 37° C. for up to 7 hours. […] Both products were isolated and shown by partial alkaline hydrolysis to be branched with the connectivities A-G and A-GG (where A is the branch-site adenosine).
It was contemplated that the new A-GG product was formed by initial templated but otherwise uncatalyzed synthesis of a GG dinucleotide (i.e., pppGpG) from two GTP molecules, followed by 10DM24-catalyzed branch formation using this dinucleotide. […] The reaction was performed under the enhanced incubation conditions of 20 mM GTP and 150 mM MgCl2. […] The pppGpG dinucleotide was synthesized independently using T7 RNA polymerase (Huang, et al. (1998) supra) and led solely to the A-GG product. Although the pppGpG substrate had Kd,app of >1 mM with RΔΔ, similar to Kd,app for GTP with RΔ, the ligation reaction with pppGpG and RΔΔ had kobs six-fold higher than for the analogous reaction with GTP and RΔ (Table 8).
Similar experiments were performed using the mutant 10DM24 deoxyribozyme that has CTTT rather than CCTT in the P4 region (FIG. 11). For the DNA-catalyzed ligation of pppGpG, the 5′-^32P-labeled RNA with the branch-site adenosine (L) was incubated with the 10DM24 deoxyribozyme (E) and the cofactor RΔΔ in the ratio of L:E:RΔΔ=1:10:30 in the presence of 1 mM pppGpG and 40 mM MgCl2 in 100 mM CHES pH 9.0, 150 mM NaCl, and 2 mM KCl at 37° C. The analysis of the ligation reaction was performed as described herein. […] This is consistent with the model that pppGpG and the first two nucleotides of RΔΔ together reconstitute the P4 helix. When the ligation reaction with pppGpG was tested in the presence of RΔ instead of RΔΔ, the ligation product A-GG was formed, but with a 10-fold decrease in kobs (squares in FIG. 11). Because RΔ provides an extraneous G nucleotide when combined with pppGpG (see legend of FIG. 11), some disruption in activity is perhaps anticipated. […] This is consistent with the observation that GTP was also not a substrate for the 10DM24-C44T mutant deoxyribozyme.
The ligation reaction of pppGpG was also performed using a variety of pppGpG concentrations with the parent 10DM24 deoxyribozyme in the presence of RΔΔ and 40 mM MgCl2. In FIG. 12, the kobs values are plotted versus [pppGpG] and fit to kobs=kmax·[pppGpG]/(Kd,app+[pppGpG]). The Kd,app for pppGpG was >1 mM.

[5] = enhanced incubation conditions: 10 mM NTP, 150 mM MgCl2, pH 9.0, 37° C.
[6] = standard incubation conditions: 1 mM NTP, 40 mM MgCl2, pH 9.0, 37° C., RΔ, ATP series
[7] = enhanced incubation conditions: 10 mM NTP, 150 mM MgCl2, 100 mM CHES pH 9.0, 37° C.
[8] = standard incubation conditions: 1 mM NTP, 40 mM MgCl2, 100 mM CHES pH 9.0, 150 mM NaCl, 2 mM KCl, 37° C., RΔ
[9] = standard conditions except with 50 mM CHES

Compound | kobs,enh/kobs,std ([1]; ATP series) | ligation yield %, 3 h ([1]; enhanced incubation conditions) [%] | kobs [1, 5] [min⁻¹] | krel = kobs,NTP*/kobs,NTP ([1]; enhanced incubation conditions) | ligation yield %, 5 h ([1]; standard incubation conditions) [%] | kobs [1, 6] [min⁻¹] | krel = kobs,NTP*/kobs,NTP ([1]; standard incubation conditions) | kobs,enh/kobs,std (10DM24 deoxyribozyme [3]) | ligation yield %, 3 h (10DM24 deoxyribozyme [3]; enhanced incubation conditions) [%] | kobs (10DM24 deoxyribozyme [3]; [7]) [min⁻¹] | krel = kobs,NTP*/kobs,NTP (10DM24 deoxyribozyme [3]; enhanced incubation conditions) | ligation yield %, 5 h (10DM24 deoxyribozyme [3]; standard incubation conditions) [%] | kobs (10DM24 deoxyribozyme [3]; [8]) [min⁻¹] | krel = kobs,NTP*/kobs,NTP (10DM24 deoxyribozyme [3]; standard incubation conditions) | further results
Nc1nc(N)c2ncn(C3OC(COP(=O)(O)OP(=O)(O)OP(=O)(O)O)C(O)C3O)c2n1 (stereo not shown) [DTP, 2,6-diaminopurine ribonucleoside triphosphate] | 8 | 90 | 0.027 | 2.1 | 68 | 0.0032 | 4.0 |  |  |  |  |  |  |  | 
5′-AppU: full-length R oligonucleotide substrate with 5′-terminal U (UGAAGAGAUGGCGACGG; RNA, 5' {App}, backbone not given here) |  |  |  |  |  |  |  |  |  |  |  |  |  |  | ligation yield in 3 hours (10DM24 deoxyribozyme [2]): 9%; kobs (10DM24 deoxyribozyme [2]): 0.002 min⁻¹
5′-AppA: full-length R oligonucleotide substrate with 5′-terminal A (AGAAGAGAUGGCGACGG; RNA, 5' {App}, backbone not given here) |  |  |  |  |  |  |  |  |  |  |  |  |  |  | kobs (10DM24 deoxyribozyme [2]): 0.18 min⁻¹
Nc1nc2c(ncn2[C@H]2C[C@H](O)[C@@H](COP(=O)(O)OP(=O)(O)OP(=O)(O)O)O2)c(=O)[nH]1 [dGTP, 2′-deoxyGTP] |  |  |  |  |  |  |  | 4 | 90 | 0.081 | 0.31 | 88 | 0.020 | 0.60 | reaction products formed (10DM24 deoxyribozyme [4]): only the single-nucleotide addition product
Nc1ncnc2c1ncn2[C@H]1CC[C@@H](COP(=O)(O)OP(=O)(O)OP(=O)(O)O)O1 [ddATP] |  |  |  |  | 25 | 0.0007 | 0.87 |  |  |  |  |  |  |  | 
Nc1ncnc2c1ncn2[C@H]1C[C@H](O)[C@@H](COP(=O)(O)OP(=O)(O)OP(=O)(O)O)O1 [dATP] | 19 | 65 | 0.007 | 0.56 | 17 | 0.0004 | 0.50 |  |  |  |  |  |  |  | 
5′-AppC: full-length R oligonucleotide substrate with 5′-terminal C (CGAAGAGAUGGCGACGG; RNA, 5' {App}, backbone not given here) |  |  |  |  |  |  |  |  |  |  |  |  |  |  | reacted more slowly than 5′-AppG (10DM24 deoxyribozyme [2]): 20 fold; ligation yield in 3 hours (10DM24 deoxyribozyme [2]): 89%; kobs (10DM24 deoxyribozyme [2]): 0.024 min⁻¹
Nc1ncc2ncn([C@H]3C[C@H](O)[C@@H](COP(=O)(O)OP(=O)(O)OP(=O)(O)O)O3)c2n1 [d2AP-TP] | >8 | 17 | 0.0008 | 0.06 | <1 |  | <0.1 |  |  |  | 0.003 |  |  | <0.0003 | kobs ([1]; standard conditions with 5′-OH-RΔ): <0.0001^[c] min^−1
Nc1ncnc2c1ncn2[C@@H]1O[C@H](COP(=O)(O)OP(=O)(O)OP(=O)(O)O)[C@@H](O)[C@@H]1O [ara-ATP, arabino-ATP] | 13 | 44 | 0.005 | 0.41 | 13 | 0.0004 | 0.50 |  |  |  |  |  |  |  | 
C2-C3-cleaved GTP [G^clv-TP] |  |  |  |  |  |  |  | >3 | 6 | 0.0003 | 0.001 | <1 | <0.0001 | <0.0003 | kobs diminished relative to GTP (10DM24 deoxyribozyme [3]): approximately 1000 fold
Nc1nc2c(ncn2COCCOP(=O)(O)OP(=O)(O)OP(=O)(O)O)c(=O)[nH]1 [G^acv-TP, acyclovir triphosphate] |  |  |  |  |  |  |  | >7 | 14 | 0.0007 | 0.003 | <1 | <0.0001 | <0.0003 | kobs diminished relative to GTP (10DM24 deoxyribozyme [3]): ~300 fold
O=P(O)(O)OP(=O)(O)OP(=O)(O)OC[C@H]1O[C@@H](n2cnc3c(O)ncnc32)[C@H](O)[C@@H]1O [ITP, inosine triphosphate] |  |  |  |  |  |  |  | 21 | 84 | 0.014 | 0.05 | 25 | 0.0007 | 0.02 | 
Nc1nc2c(ncn2[C@H]2CC[C@@H](COP(=O)(O)OP(=O)(O)OP(=O)(O)O)O2)c(=O)[nH]1 [ddGTP, 2′,3′-dideoxyGTP] |  |  |  |  |  |  |  |  |  |  |  |  |  |  | kobs (10DM24 deoxyribozyme [3]; [9]): 0.013 min⁻¹; ligation yield %, 5 h (10DM24 deoxyribozyme [3]; [9]): 85%; krel = kobs,NTP*/kobs,NTP (10DM24 deoxyribozyme [3]; [9]): 0.38

From patent publication US20080207885A1, “Method for site-specific labeling of RNA using a deoxyribozyme” (priority 2007, published 2008)
